Measured values published in patent US7833967B2, “Synthetic antimicrobial polypeptides” (priority 2003, dated 2010).

Tested on: E. coli TOP10
Experiment: Suicide expression system (SES) growth inhibition
Assay type: cell-based
Settings: Table 4; variants of SEQ ID NO:10, re-tested in the Bioscreen C

Substance	Growth inhibition (%)
66 (RRRPFRPPFRPPFRPPIRPPLRPPIRP; Synthetic antimicrobial peptide) [compound 66]	76
67 (RRRPLRPPLRPPIRPPFRPPVRPPFRP; Synthetic antimicrobial peptide) [compound 67]	80
68 (RRRPIRPPFRPPFRPPLRPPVRPPFRP; Synthetic antimicrobial peptide) [compound 68]	78
69 (RRRPIRPPFRPPFRPPLRPPFRPPIRP; Synthetic antimicrobial peptide) [compound 69]	75
70 (RRRPLRPPLRPPFRPPIRPPLRPPFRP; Synthetic antimicrobial peptide) [compound 70]	76
71 (RRRPLRPPIRPPFRPPIRPPFRPPFRP; Synthetic antimicrobial peptide) [compound 71]	82
72 (RRRPIRPPFRPPFRPPFRPPFRPPFRP; Synthetic antimicrobial peptide) [compound 72]	49
73 (RRRPFRPPVRPPFRPPVRPPIRPPVRP; Synthetic antimicrobial peptide) [compound 73]	65
74 (RRRPFRPPVRPPFRPPFRPPIRPPIRP; Synthetic antimicrobial peptide) [compound 74]	76
75 (RRRPFRPPIRPPVRPPFRPPFRPPFRP; Synthetic antimicrobial peptide) [compound 75]	79
76 (RRRPIRPPFRPPIRPPVRPPFRPPIRP; Synthetic antimicrobial peptide) [compound 76]	86
77 (RRRPFRPPFRPPIRPPVRPPFRPPFRP; Synthetic antimicrobial peptide) [compound 77]	72
78 (RRRPLRPPFRPPFRPPFRPPIRPPVRP; Synthetic antimicrobial peptide) [compound 78]	83
79 (RRRPFRPPFRPPFRPPVRPPVRPPFRP; Synthetic antimicrobial peptide) [compound 79]	82
80 (RRRPFRPPFRPPIRPPVRPPVRPPFRP; Synthetic antimicrobial peptide) [compound 80]	81
81 (RRRPFRPPIRPPFRPPFRPPVRPPIRP; Synthetic antimicrobial peptide) [compound 81]	80
82 (RRRPIRPPFRPPVRPPFRPPFRPPFRP; Synthetic antimicrobial peptide) [compound 82]	71
83 (RRRPLRPPFRPPIRPPVRPPFRPPVRP; Synthetic antimicrobial peptide) [compound 83]	72
84 (RRRPIRPPLRPPIRPPFRPPFRPPLRP; Synthetic antimicrobial peptide) [compound 84]	80
85 (RRRPFRPPIRPPIRPPFRPPFRPPIRP; Synthetic antimicrobial peptide) [compound 85]	67
86 (RRRPIRPPFRPPLRPPLRPPVRPPFRP; Synthetic antimicrobial peptide) [compound 86]	74
87 (RRRPFRPPFRPPIRPPFRPPVRPPVRP; Synthetic antimicrobial peptide) [compound 87]	80

Substance	Growth inhibition (%)
88 (RRRPFRPPLRPPLRPPVRPPVRPPFRP; Synthetic antimicrobial peptide) [compound 88]	82
89 (RRRPFRPPFRPPFRPPVRPPVRPPLRP; Synthetic antimicrobial peptide) [compound 89]	70
90 (RRRPFRPPIRPPFRPPFRPPVRPPFRP; Synthetic antimicrobial peptide) [compound 90]	74
91 (RRRPFRPPVRPPIRPPVRPPFRPPVRP; Synthetic antimicrobial peptide) [compound 91]	52
92 (RRRPVRPPIRPPFRPPFRPPFRPPFRP; Synthetic antimicrobial peptide) [compound 92]	85
93 (RRRPFRPPFRPPFRPPVRPPLRPPIRP; Synthetic antimicrobial peptide) [compound 93]	61
94 (RRRPFRPPVRPPIRPPVRPPFRPPFRP; Synthetic antimicrobial peptide) [compound 94]	77
95 (RRRPFRPPLRPPLRPPIRPPVRPPFRP; Synthetic antimicrobial peptide) [compound 95]	80
96 (RRRPFRPPIRPPFRPPIRPPLRPPIRP; Synthetic antimicrobial peptide) [compound 96]	71
97 (RRRPLRPPFRPPFRPPLRPPFRPPIRP; Synthetic antimicrobial peptide) [compound 97]	69
98 (RRRPFRPPFRPPVRPPIRPPLRPPFRP; Synthetic antimicrobial peptide) [compound 98]	63
99 (RRRPFRPPIRPPIRPPFRPPIRPPFRP; Synthetic antimicrobial peptide) [compound 99]	79
100 (RRRPIRPPFRPPFRPPFRPPFRPPFRP; Synthetic antimicrobial peptide) [compound 100]	84
101 (RRRPIRPPFRPPLRPPFRPPIRPPIRP; Synthetic antimicrobial peptide) [compound 101]	81
102 (RRRPIRPPFRPPIRPPFRPPLRPPFRP; Synthetic antimicrobial peptide) [compound 102]	77
103 (RRRPLRPPIRPPIRPPVRPPFRPPIRP; Synthetic antimicrobial peptide) [compound 103]	73
104 (RRRPFRPPFRPPIRPPFRPPFRPPLRP; Synthetic antimicrobial peptide) [compound 104]	76
105 (RRRPIRPPLRPPLRPPFRPPFRPPFRP; Synthetic antimicrobial peptide) [compound 105]	73
106 (RRRPFRPPFRPPFRPPIRPPIRPPLRP; Synthetic antimicrobial peptide) [compound 106]	75
107 (RRRPFRPPFRPPVRPPFRPPIRPPFRP; Synthetic antimicrobial peptide) [compound 107]	69
108 (RRRPLRPPFRPPIRPPVRPPVRPPFRP; Synthetic antimicrobial peptide) [compound 108]	76
109 (RRRPFRPPIRPPVRPPLRPPVRPPFRP; Synthetic antimicrobial peptide) [compound 109]	71

Substance	Growth inhibition (%)
110 (RRRPFRPPLRPPFRPPIRPPIRPPVRP; Synthetic antimicrobial peptide) [compound 110]	73
111 (RRRPLRPPVRPPFRPPVRPPLRPPFRP; Synthetic antimicrobial peptide) [compound 111]	59
112 (RRRPFRPPIRPPFRPPVRPPVRPPVRP; Synthetic antimicrobial peptide) [compound 112]	69
113 (RRRPLRPPVRPPFRPPVRPPFRPPFRP; Synthetic antimicrobial peptide) [compound 113]	75
114 (RRRPLRPPLRPPFRPPLRPPFRPPFRP; Synthetic antimicrobial peptide) [compound 114]	74
115 (RRRPLRPPFRPPIRPPFRPPFRPPFRP; Synthetic antimicrobial peptide) [compound 115]	79
116 (RRRPIRPPFRPPFRPPVRPPIRPPFRP; Synthetic antimicrobial peptide) [compound 116]	69
117 (RRRPIRPPIRPPFRPPFRPPIRPPFRP; Synthetic antimicrobial peptide) [compound 117]	77
118 (RRRPFRPPFRPPLRPPFRPPVRPPLRP; Synthetic antimicrobial peptide) [compound 118]	73
119 (RRRPIRPPFRPPIRPPFRPPVRPPVRP; Synthetic antimicrobial peptide) [compound 119]	69
120 (RRRPLRPPFRPPFRPPFRPPVRPPIRP; Synthetic antimicrobial peptide) [compound 120]	68
121 (RRRPIRPPLRPPVRPPIRPPFRPPFRP; Synthetic antimicrobial peptide) [compound 121]	65
122 (RRRPFRPPFRPPFRPPVRPPFRPPLRP; Synthetic antimicrobial peptide) [compound 122]	64
123 (RRRPFRPPLRPPIRPPIRPPFRPPFRP; Synthetic antimicrobial peptide) [compound 123]	65
124 (RRRPFRPPIRPPLRPPVRPPLRPPFRP; Synthetic antimicrobial peptide) [compound 124]	73
125 (RRRPIRPPFRPPLRPPFRPPVRPPVRP; Synthetic antimicrobial peptide) [compound 125]	73
126 (RRRPIRPPIRPPLRPPFRPPFRPPFRP; Synthetic antimicrobial peptide) [compound 126]	77
127 (RRRPIRPPFRPPLRPPFRPPFRPPLRP; Synthetic antimicrobial peptide) [compound 127]	67
128 (RRRPFRPPFRPPLRPPFRPPVRPPLRP; Synthetic antimicrobial peptide) [compound 128]	69
129 (RRRPFRPPFRPPVRPPFRPPIRPPLRP; Synthetic antimicrobial peptide) [compound 129]	69
130 (RRRPFRPPIRPPLRPPFRPPVRPPLRP; Synthetic antimicrobial peptide) [compound 130]	78
131 (RRRPIRPPFRPPFRPPIRPPIRPPVRP; Synthetic antimicrobial peptide) [compound 131]	75
